In patent US20200223840A1, “SUBSTITUTED PYRROLIDINE AMIDES III” (Gruenenthal GMBH, priority 2019, published 2020) one finds inhibition data, which are given here for 1 compound.

This test addresses T1, human glucocorticoid receptor (Homo sapiens, UniProt P04150).
T1 construct: host or cells: IM9 human lymphoblast cells, cytosol fraction
T1 sequence (P04150 1-777): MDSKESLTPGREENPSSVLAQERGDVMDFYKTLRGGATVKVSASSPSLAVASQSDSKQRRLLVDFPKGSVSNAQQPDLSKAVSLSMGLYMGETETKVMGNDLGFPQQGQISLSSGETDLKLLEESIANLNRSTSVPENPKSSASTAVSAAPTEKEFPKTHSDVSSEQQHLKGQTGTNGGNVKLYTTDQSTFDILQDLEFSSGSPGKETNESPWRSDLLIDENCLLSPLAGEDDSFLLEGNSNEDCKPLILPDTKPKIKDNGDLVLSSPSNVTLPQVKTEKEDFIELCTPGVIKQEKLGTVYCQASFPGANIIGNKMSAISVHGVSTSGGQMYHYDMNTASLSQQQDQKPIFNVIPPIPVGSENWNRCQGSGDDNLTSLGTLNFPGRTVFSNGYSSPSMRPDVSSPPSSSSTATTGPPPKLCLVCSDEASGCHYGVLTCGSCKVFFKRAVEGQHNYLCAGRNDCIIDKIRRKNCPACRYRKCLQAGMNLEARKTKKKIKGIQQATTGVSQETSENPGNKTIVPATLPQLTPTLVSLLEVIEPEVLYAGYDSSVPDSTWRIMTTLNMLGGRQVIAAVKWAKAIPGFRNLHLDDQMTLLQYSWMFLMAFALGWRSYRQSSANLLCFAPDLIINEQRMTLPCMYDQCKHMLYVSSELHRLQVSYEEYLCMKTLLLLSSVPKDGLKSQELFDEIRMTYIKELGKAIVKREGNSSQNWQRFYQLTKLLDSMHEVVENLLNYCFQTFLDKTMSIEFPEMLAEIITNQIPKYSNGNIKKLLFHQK
Kind of test: Human glucocorticoid receptor (hGR) ligand-binding assay, 3H-dexamethasone, IM9 cytosol. As to conditions: read-out: % inhibition hGR at 1 μM. The protocol: Preferably, the glucocortitcoid receptor extracted from cytosol of IM9 cells is used for competitive radioligand binding assays to calculate percentage inhibition of the binding of radiolabeled ligand 3H-dexamethasone at the human glucocorticoid receptor.
The human lymphoblast cell line IM9 (ATCC, Bethesda, Md.) was cultivated in RPMI 1640 media containing 10% fetal bovine serum, penicillin (100 U/ml), streptomycin (100 μg/ml), and 2 mM L-glutamine at […] and 7% CO2 in a humidified incubator. Cells were centrifuged for 10 minutes at 1500 g and were washed in PBS and repelleted. Cell were then resuspended in homogenization buffer consisting of: 10 mM TES, 10 mM sodium molybdate, 1 mM EDTA, pH 7.4, 20 mM 2-mercaptoethanol, and 10% glycerol. Disruption of the cells was performed by nitrogen cavitation using 2×15 minutes at 600 to 750 psi nitrogen in a N2 cavitator at 0° C. The cell preparation was then centrifuged at 27,000 g for 15 minutes, and the resultant supernatant (=cytosol of IM9 cells) was centrifuged at 103,000 g for 60 minutes at 4° C. The amount of protein in the supernatant fraction was determined using a BCA assay kit and aliquots were snap frozen in a dry ice-acetone bath and stored at −70° C. […] 100 μl of the supernatant) was finally assayed for radioactivity by liquid scintillationspectrometry, and percentage inhibition of 3H-dexamethasone binding was calculated.

Take `Cc1cnc(C(=O)N[C@H]2[C@H](c3ccccc3)N(c3ccc4c(cnn4-c4ccc(=O)n(C)c4)c3)C(=O)C2(C)C)s1` [Example 26, N-[(2S,3R)-4,4-Dimethyl-1-[1-(1-methyl-6-oxo-1H-pyridin-3-yl)-1H-indazol-5-yl]-5-oxo-2-phenyl-pyrrolidin-3-yl]-5-methyl-thiazole-2-carboxylic acid amide]: the inhibition at 1 µM was 28%.

The inhibition is how much of the control response was suppressed.
